In paper PMC6149995 (2017):

Key:
[1] = test system: FmycT (DNA, G4) TTGAGGGTGGGTAGGGTGGGTAA; assay: FRET melting; details: 1 mM K+, 99 mM Li+; 10 mM lithium cacodylate pH 7.2; 1 µM ligand, 0.2 µM DNA; limit stated for all other cases
[2] = test system: ds26 (DNA, duplex) CAATCGGATCGAATTCGATCCGATTG; assay: fluorescence titration; details: K+ buffer; insignificant fluorescence reduction, fit unsuccessful; 0.5 µM ligand
[3] = test system: 22AG (DNA, G4) AGGGTTAGGGTTAGGGTTAGGG; assay: circular dichroism titration; details: 10 mM lithium cacodylate pH 7.2, 21 °C, 3 µM DNA
[4] = test system: 22AG (DNA, G4) AGGGTTAGGGTTAGGGTTAGGG; assay: fluorescence titration (ligand quenching, Hill fit); details: 10 mM lithium cacodylate pH 7.2, r.t., 0.5 µM ligand, DNA titrated
[5] = test system: Myc2345-Pu22 (DNA, G4) TGAGGGTGGGTAGGGTGGGTAA; assay: as above; details: 100 mM K+; 10 mM lithium cacodylate pH 7.2, r.t., 0.5 µM ligand, DNA titrated
[6] = test system: F21T (DNA, G4) GGGTTAGGGTTAGGGTTAGGG; assay: FRET melting; details: 90 mM Li+, 10 mM lithium cacodylate pH 7.2, 1 µM ligand, 0.2 µM DNA, limit stated for all other cases
[7] = 100 mM K+, 0-5 equiv ligand, conversion to antiparallel
[8] = 100 mM Na+, slightly reduced helicity, antiparallel kept

For `c1ccc(-c2cnc(-c3cccc(-c4cnc(-c5cccc(-c6cnc(-c7ccccn7)o6)n5)o4)n3)o2)nc1`, the ΔTm [1] was under 3 °C, the binding [2] was “no” and the binding [3, 7] was “yes”. For the same compound, the binding [3, 8] was “yes”, the KD ([4]; 100 mM K+) was “(5.0 ± 0.3) × 10^−7 M^−1” and the KD ([4]; 100 mM Na+) was “(0.6 ± 0.0) × 10^−7 M^−1”. For the same compound, the KD [5] was “(1.9 ± 0.1) × 10^−7 M^−1”.
Work on `c1ccc(-c2cnc(-c3cccc(-c4cnc(-c5ccccn5)o4)n3)o2)nc1` yielded a ΔTm ([6]; 10 mM K+) of under 3 °C, a ΔTm ([6]; 10 mM Na+) of under 3 °C and a ΔTm [1] of under 3 °C. For the same compound, the binding [2] was “no”, the binding ([3]; 100 mM K+, needs more equivalents to rearrange) was “yes” and the binding [3, 8] was “yes”. The KD ([4]; 100 mM K+) was “(3.2 ± 0.1) × 10^−7 M^−1”, the KD ([4]; 100 mM Na+) was “(7.2 ± 0.8) × 10^−7 M^−1” and the KD [5] was “(4.8 ± 0.3) × 10^−7 M^−1”.
With `c1ccc(-c2cnc(-c3cccc(-c4cnc(-c5cccc(-c6cnco6)n5)o4)n3)o2)nc1` the ΔTm [1] was under 3 °C, the binding [2] was “no” and the binding [3, 7] was “yes”. For the same compound, the binding [3, 8] was “yes”, the KD ([4]; 100 mM K+) was “(2.2 ± 0.1) × 10^−7 M^−1” and the KD ([4]; 100 mM Na+) was “(0.8 ± 0.1) × 10^−7 M^−1”. For the same compound, the KD [5] was “(1.7 ± 0.1) × 10^−7 M^−1”.
